Source: PubChem BioAssay (NCI)
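All cell lines were grown in 96-well plates and treated with compound for 48 hours. GI50 = concentration required for 50% inhibition of growth. TGI is the concentration that stops growth completely.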

Assays:
Experiment in all cases: inhibition of tumour cell growth, NCI panel, 48 h
[1] = test system: UO-31 renal
[2] = test system: SF-539 CNS
[3] = test system: KM12 colon
[4] = test system: NCI-H460 lung
[5] = test system: A549 NSCLC
[6] = test system: HCC-2998 colon
[7] = test system: IGROV1 ovarian
[8] = test system: A498 renal
[9] = test system: MOLT-4 leukemia
[10] = test system: MDA-MB-231 breast

Compound	TGI [1]	TGI [2]	TGI [3]	TGI [4]	TGI [5]	TGI [6]	TGI [7]	TGI [8]	TGI [9]	GI50 [1]	GI50 [2]	GI50 [3]	GI50 [4]	GI50 [7]	GI50 [5]	GI50 [8]	GI50 [9]	GI50 [6]	GI50 [10]	TGI [10]
CC(NC(=O)C(=O)N/N=C1\C[C@@H](c2ccccc2)Nc2ccccc21)c1ccccc1 (stereo not given in full)	> 100 µM	> 100 µM	> 100 µM	> 100 µM	> 100 µM	> 100 µM														
Cn1c(=O)c(C(=O)NC(=O)NCCCCCOC(=O)CCCCCCCCCCC(=O)OCCCCCNC(=O)NC(=O)c2cn(Cc3ccccc3)c(=O)n(C)c2=O)cn(Cc2ccccc2)c1=O	> 100 µM	> 100 µM	> 100 µM	> 100 µM	> 100 µM	> 100 µM	> 100 µM	> 100 µM												
CC1(C(=O)O)CCOc2ccccc21 (stereo not given)	> 100 µM	> 100 µM		> 100 µM	> 100 µM	> 100 µM	> 100 µM	> 100 µM	> 100 µM											
COC12CCC(C(C(=O)c3ccccc3)=C1C(=O)c1ccccc1)C(O)C2 (stereo not given)	> 100 µM	> 100 µM	> 100 µM		> 100 µM	> 100 µM	> 100 µM	> 100 µM	> 100 µM											
Cc1c(-c2nnc(-c3ccccc3)o2)c(=O)n(-c2ccccc2)n1C	> 100 µM	> 100 µM	> 100 µM	> 100 µM	> 100 µM	> 100 µM	> 100 µM	> 100 µM	> 100 µM											
CC(C)C(=O)[O-].CC(C)C(=O)[O-].N.N.N.N.[Co+3].[O-][Cl+3]([O-])([O-])[O-]	> 100 µM	> 100 µM	> 100 µM	> 100 µM	> 100 µM	> 100 µM	> 100 µM	> 100 µM	> 100 µM	> 100 µM	> 100 µM	> 100 µM	> 100 µM	> 100 µM	> 100 µM	> 100 µM	> 100 µM	> 100 µM		
NCc1c(C(N)=O)ncn1Cc1ccccc1		> 100 µM		> 100 µM	> 100 µM	> 100 µM	> 100 µM	> 100 µM	> 100 µM											
CCOC(=O)N1C(c2ccccc2)C=CC(c2ccccc2)N1C(=O)OCC (stereo not given)		> 100 µM	> 100 µM	> 100 µM	> 100 µM		> 100 µM	> 100 µM												
N#Cc1nc2c(S(=O)(=O)c3ccccc3)c(N)n(Cc3ccc(Cl)cc3)c2nc1C#N		> 50 µM	> 50 µM	> 50 µM	41.3 µM	10.8 µM	42.3 µM				19.4 µM	17.1 µM	10.9 µM	9.65 µM	12.1 µM			3.6 µM	5.08 µM	14.9 µM
O=C(Nc1ccc(Br)cc1)C(=O)C(C(=O)c1ccccc1F)C1OC(=O)c2ccccc21 (stereo not given)	56.6 µM	66.9 µM	> 100 µM	> 100 µM	> 100 µM	32.1 µM	> 100 µM	> 100 µM	92.8 µM											
CCOC(=O)C1=C(Nc2ccc(Br)cc2)OC/C1=N\NC(=O)c1ccccc1O	> 50.9 µM	> 77.6 µM	> 100 µM	> 100 µM	> 100 µM	> 100 µM	> 100 µM	99.3 µM	35.2 µM											
CC1CCCc2c1c1ccc3c(O)cccc3c1oc2=O (stereo not given)	> 100 µM		> 100 µM	> 100 µM	> 100 µM	> 100 µM	> 100 µM		> 100 µM											
C=C1C(OC/C=C/COC2O[C@@H]3O[C@@]4(C)CC[C@H]5[C@H](C)CC[C@@H](C2=C)[C@@]35OO4)O[C@@H]2O[C@@]3(C)CC[C@H]4[C@H](C)CC[C@@H]1[C@@]24OO3 (stereo not given in full)	> 39.4 µM	25.2 µM	0.778 µM	27.2 µM	> 60.5 µM		> 36.6 µM	> 100 µM	> 100 µM	2.23 µM	10 µM	< 0.024 µM	5.18 µM	1.6 µM	7.48 µM	26 µM	0.309 µM		11.4 µM	51.3 µM
N#Cc1ccc(Oc2cccc(Oc3ccccc3)c2)cc1C#N	61.6 µM	> 100 µM	> 100 µM	> 100 µM	> 100 µM	> 100 µM	> 100 µM	> 100 µM	> 100 µM			> 100 µM		> 100 µM				> 100 µM		
CCCCn1c2ccccc2c2ccc3c(c21)C(=O)C=CC3=O	> 100 µM	> 100 µM	> 100 µM	> 100 µM	> 100 µM	> 100 µM	> 100 µM	> 100 µM	> 100 µM											
O=C(Nc1nc2ccc([N+](=O)[O-])cc2s1)C(=O)C(C(=O)c1ccncc1)C1OC(=O)c2ccccc21 (stereo not given)			> 100 µM		> 100 µM	> 100 µM	> 100 µM	> 100 µM	> 100 µM											
CC(=O)[O-].[Zn].c1ccc(/C(=N\Nc2ccccn2)c2ccccn2)cc1	16.5 µM	9.53 µM		1.32 µM	5.48 µM	2.07 µM	0.272 µM	9.16 µM	0.227 µM	0.332 µM	1.43 µM		0.35 µM		0.447 µM					
Fc1ccc2c(c1)C1=C(CO2)C(c2ccc(Cl)cc2)NC(=S)N1 (stereo not given)	84 µM	44.1 µM	38.9 µM	61.8 µM	> 100 µM		61 µM	73.7 µM	> 100 µM	27.8 µM	23 µM	17.8 µM	21.9 µM	24.3 µM	33.2 µM	17.4 µM	39.5 µM		18.8 µM	55.7 µM
COc1nc2c(nc(N)n2C2OCC(O)C(O)C2O)c(=O)n1C (stereo not given)	> 100 µM	> 100 µM	> 100 µM	> 100 µM	> 100 µM	> 100 µM	> 100 µM	> 100 µM	> 100 µM											
C=C1CCCC2[C@](C)(CC3=C(O)C(=O)C=C(OC)C3=O)[C@@H](C)CC[C@]12C (stereo not given in full)		16 µM	17.4 µM	17.5 µM	11 µM		16 µM													

Compound	TGI [1]	TGI [2]	TGI [3]	TGI [4]	TGI [5]	TGI [6]	TGI [7]	TGI [8]	TGI [9]	GI50 [1]	GI50 [2]	GI50 [3]	GI50 [4]	GI50 [7]	GI50 [5]	GI50 [8]	GI50 [9]	GI50 [6]	GI50 [10]	TGI [10]
Clc1cc(-c2ccccc2)nc2ccccc12	> 100 µM	> 100 µM	77.5 µM	> 100 µM	> 100 µM		> 100 µM	94.3 µM	54.6 µM											> 100 µM
O=c1cccccc1[O-].O=c1cccccc1[O-].O=c1cccccc1[O-].[Ce+3]	84.6 µM	58.8 µM	> 100 µM	> 100 µM	> 100 µM	> 100 µM	88.4 µM	> 100 µM	> 100 µM		14.8 µM					30.8 µM				
Cn1ccnc1CCc1ccc(Cl)c(Cl)c1	> 100 µM	> 100 µM	> 100 µM	> 100 µM	> 100 µM		> 100 µM	> 100 µM	> 100 µM											
CCOC(=O)c1ccc(N2C(=O)Cc3ccccc3C2=O)cc1	> 100 µM	> 100 µM	> 100 µM		> 100 µM	> 100 µM	> 100 µM		> 100 µM											
c1ccc(B2OCC(C3OB(c4ccccc4)OC4COB(c5ccccc5)OC43)O2)cc1 (stereo not given)	> 100 µM	> 100 µM	> 100 µM	> 100 µM	> 100 µM		> 100 µM	> 100 µM	> 100 µM											> 100 µM
Cc1ccccc1C(=O)Oc1ccc(OCc2ccccc2)cc1	> 100 µM	> 100 µM	> 100 µM	> 100 µM	> 100 µM	> 100 µM	> 100 µM	> 100 µM	> 100 µM											
O=[N+]([O-])c1ccc([N+]2=NC(c3ccccc3)=NN(c3ccccc3)C2)cc1	> 100 µM	> 100 µM	> 100 µM	> 100 µM	> 100 µM		> 100 µM		> 100 µM											
Nc1nccc2c1ncn2C1OC(CO)C(O)C1O (stereo not given)	> 100 µM	> 100 µM	> 100 µM	> 100 µM	> 100 µM	> 100 µM	> 100 µM		> 100 µM	28.8 µM	> 100 µM	54.5 µM	73.8 µM	44.7 µM	> 100 µM		> 100 µM	> 100 µM	> 100 µM	> 100 µM
FC(F)(F)c1cccc2c(SCCc3n[nH]c(=S)o3)ccnc12	> 100 µM	> 100 µM	> 100 µM	> 100 µM	> 100 µM	> 100 µM	> 100 µM		> 100 µM	25.4 µM	45.9 µM	52.7 µM	67.4 µM	23.4 µM	51.6 µM		31.2 µM	37.9 µM	43.1 µM	> 100 µM
CCOC(=O)C(C)(C)Oc1ccc2c(-c3ccc(Cl)cc3)c(-c3ccc(Cl)cc3)c(=O)oc2c1	> 100 µM	> 100 µM		> 100 µM	> 100 µM	> 100 µM	> 100 µM	> 100 µM	> 100 µM											
CC(=O)OC1CCC2C(=CCC3C2(C)C(=O)CC2(C)C(C4(C)OC(C(C)C)=CC4=O)C(O)CC32C)C1(C)C (stereo not given)	> 100 µM	33.2 µM	> 10 µM	66.4 µM	> 100 µM		> 100 µM	> 100 µM	> 100 µM											
CC(=O)/C=C1\CC(=O)Nc2ccccc2N1	> 100 µM	> 100 µM	> 100 µM	> 100 µM	> 100 µM	> 100 µM	> 100 µM	> 100 µM	> 100 µM											
S=c1sc2cscc2s1	35.6 µM	65.5 µM	33.3 µM	53.8 µM	37.5 µM	32.8 µM	> 100 µM	> 100 µM	> 100 µM											
CS/C(c1ccccc1)=[N+](\[O-])Cc1ccccc1	> 100 µM	> 100 µM	> 100 µM	> 100 µM	> 100 µM	> 100 µM	> 100 µM	> 100 µM	> 100 µM											
COC(=O)[C@]12CC[C@@H](C)[C@H](C)[C@@H]1C1=CC[C@@H]3[C@@]4(C)C(C=O)=C[C@@](C)(COS(C)(=O)=O)C4[C@H](O)C[C@@]3(C)[C@]1(C)CC2 (stereo not given in full)	2.35 µM	3.71 µM	3.96 µM	4.93 µM	11 µM	3.12 µM	7.36 µM	16 µM	1.05 µM	1.04 µM	1.83 µM	1.83 µM	2.15 µM	2.58 µM	2.64 µM	3.74 µM	0.313 µM	1.69 µM		
O=C(NC1C2CC3CC(C2)CC1C3)/C(Cl)=C1/Sc2ccccc2NC1=O (stereo not given)	> 100 µM	> 100 µM	> 100 µM	> 100 µM	> 100 µM	> 100 µM	> 100 µM	> 100 µM	> 100 µM											
OCC(CCc1c[nH]c2ccccc12)c1c[nH]c2ccccc12 (stereo not given)	25.9 µM	33.6 µM	32.5 µM	28 µM	47.2 µM		27.5 µM	30.2 µM	52.1 µM											27.6 µM
COC(=O)[C@H](C)NC(=O)[C@@H](OC)[C@@H]1Cc2cc3cc(OC4CC(OC5CC(O)C(O)C(C)O5)C(O)C(C)O4)c(C)c(O)c3c(O)c2C(=O)[C@H]1OC1CC(OC2CC(OC3CC(C)(O)C(O)C(C)O3)C(O)C(C)O2)C(O)C(C)O1 (stereo not given in full)	3.09 µM	2.62 µM	> 50 µM	> 50 µM	> 50 µM	2.08 µM	> 50 µM		4.13 µM	0.182 µM	0.0478 µM	0.0944 µM	0.0344 µM	0.05 µM	0.195 µM		0.232 µM	0.16 µM	0.247 µM	> 50 µM
O=C(O)c1ccccc1N=Nc1ccc2oc(=O)c(C(=O)Nc3ccccc3)cc2c1	> 100 µM	> 100 µM	> 100 µM	> 100 µM	> 100 µM		> 100 µM		> 100 µM											
O=C1C(=O)N(c2nccs2)C(=O)C(=O)C1c1nc2ccccc2s1	> 100 µM	> 100 µM	> 100 µM	> 100 µM	> 100 µM	> 100 µM	> 100 µM													
